# Source: patent EP1769804B1, “hPTH(1-34) for use in preventing or reducing the incidence or severity of vertebral and / or non vertebral fracture in a male human” (priority 1998, dated 2012)
# Marks after values point to notes of the source that are not given here.
# Legend:
# Ovariectomized Primates [1] = assay: Biomechanical measures of cortical bone of the humerus midshaft; format: in vivo, Macaca fascicularis; conditions: for Fy / S (stiffness) / t (average cortical thickness): humerus midshaft, mean ± SEM
# Text: (§1) Biomechanical tests were done on lumbar vertebrae L-3 to L-4, the femur neck, humerus midshaft, and on a cortical bone specimen machined from the femur diaphysis (measures defined in Table 2). Conventional static and dynamic histomorphometry were done (measures described in Table 6) on the humerus midshaft, lumbar vertebra L-2, femoral neck, femur midshaft, the radius midshaft and distal radius. Initial statistical analyses compared all groups to vehicle-treated ovariectomized controls. The data is suitable for additional exploratory analyses to examine dose dependency, effects of withdrawal, interactions between outcomes, and changes in time by methods known to those of skill in the art. All assays were conducted and determined by methods known in the art.
# Ovariectomized Primates [2] = assay: Biomechanical measures of strength in the spine (lumbar vertebrae L-3 and L-4); format: in vivo, Macaca fascicularis; conditions: for A (cross-sectional area) / E (Young's modulus) / Fy (yield force) / S (stiffness): L-3 and L-4 combined, mean ± SEM
# Text: as §1
# [3] = tested on: ovariectomized cynomolgus primates; assay: Bone mass by DXA and pQCT in the primate study; format: in vivo, Macaca fascicularis
# Text: (§2) All animals were euthanized after 18 months.
# [4] = tested on: ovariectomized cynomolgus primates; assay: Serum and urine measures in the primate study; format: in vivo, Macaca fascicularis
# Text: as §2
# post-menopausal women = assay: Clinical trial: BMC, BMD and bone area by dual energy absorptiometry (DEXA); format: in vivo, Humans
# Procedure: The effect of PTH on bone mineral content (BMC), bone mineral density (BMD), and bone area were determined by dual energy absorptiometry (DEXA), and the results are reported in Tables 12-14. PTH administration caused apparent increases in BMC at the patient's lumbar spine, femur and hip, wrist, and throughout the patient's whole body (Table 12). Treatment with PTH caused significant increases in the patient's BMD at the lumbar spine, femur and hip (Table 13). The increases at the lumbar spine, femur and hip were statistically significant with p<0.001 (Table 13). […] The increases were statistically significant for the lumbar spine and hip neck (Table 14).
# [5] = tested on: ovariectomized cynomolgus primates; assay: Iliac biopsy histomorphometry (cancellous bone); format: in vivo, Macaca fascicularis
# Text: as §2
# [6] = tested on: ovariectomized cynomolgus monkeys; conditions: cynomolgus monkey, in vivo
# Procedure: The live phase of the study used feral, adult (closed growth plates) cynomolgus primates (Macaca fascicularis), weighing 2.77±0.03 kg (mean ± standard error of the mean [SEM]). Monkeys were held in quarantine for 3 months, then started on a diet containing 0.3% calcium, 0.3% phosphate, and 250 IU vitamin D3/100 g diet, and given fluoridated water (1 ppm fluoride) ad libitum. The calcium content corresponded to 1734 mg calcium/2000 calories. After 1 month on the diet, animals were sorted into groups of 21 or 22, sham operated or ovariectomized. Once daily subcutaneous injections of vehicle (sham and ovariectomized controls) or rhPTH(1-34), at 1 µg/kg (PTH1) or 5 µg/kg (PTH5), were started 24 hours after ovariectomy. Animals were treated for either 18 months (PTH1 and PTHS), or for 12 months followed by withdrawal of treatment (PTH1-W and PTH5-W).
# Ovariectomized Primates [7] = assay: Biomechanical measure of strength of femur neck; format: in vivo, Macaca fascicularis; design: Fa, Proximal femur neck: unit not given here; conditions: for Fa, Proximal femur neck: mean ± SEM
# Text: as §1
# [8] = compared to ovariectomized controls
# [9] = PTH1-W: withdrawal after 1 µg/kg for 12 months
# [10] = PTH5-W: withdrawal after 5 µg/kg for 12 months
# [11] = PTH1-W: withdrawal for 6 months after 1 µg/kg for 12 months
# [12] = PTH5-W: withdrawal for 6 months after 5 µg/kg for 12 months
# [13] = compared to ovariectomized, 24 hours after injection
substance,measurement,setting,value
teriparatide [rhPTH(1-34)],measures in the cortical diaphysis of the humerus midshaft,Ovariectomized Primates [1]; [8],did not alter
same,Fy,Ovariectomized Primates [1]; [9],689 ± 23 N
same,S (stiffness),Ovariectomized Primates [1]; [9],573 ± 20 N/mm
same,t (average cortical thickness),Ovariectomized Primates [1]; [9],1.66 ± 0.04 mm
same,Fy,Ovariectomized Primates [1]; PTH1: 1 µg/kg for 18 months,654 ± 23 N
same,S (stiffness),Ovariectomized Primates [1]; PTH1: 1 µg/kg for 18 months,544 ± 23 N/mm
same,t (average cortical thickness),Ovariectomized Primates [1]; PTH1: 1 µg/kg for 18 months,1.68 ± 0.03 mm
same,Fy,Ovariectomized Primates [1]; [10],707 ± 24 N
same,S (stiffness),Ovariectomized Primates [1]; [10],573 ± 24 N/mm
same,t (average cortical thickness),Ovariectomized Primates [1]; [10],1.72 ± 0.05 mm
same,Fy,Ovariectomized Primates [1]; PTH5: 5 µg/kg for 18 months,680 ± 15^a N
same,S (stiffness),Ovariectomized Primates [1]; PTH5: 5 µg/kg for 18 months,548 ± 18 N/mm
same,t (average cortical thickness),Ovariectomized Primates [1]; PTH5: 5 µg/kg for 18 months,1.80 ± 0.04^a mm
same,A (cross-sectional area),Ovariectomized Primates [2]; [11],90.9±2.3 mm^2
same,E (Young's modulus),Ovariectomized Primates [2]; [11],659±42 Mpa
same,Fy (yield force),Ovariectomized Primates [2]; [11],1899±73^a N
same,S (stiffness),Ovariectomized Primates [2]; [11],7401±432^a N/mm
same,E (Young's modulus),Ovariectomized Primates [2]; PTH1: 1 µg/kg for 18 months,717±48^a Mpa
same,Fy (yield force),Ovariectomized Primates [2]; PTH1: 1 µg/kg for 18 months,1915±105^a N
same,S (stiffness),Ovariectomized Primates [2]; PTH1: 1 µg/kg for 18 months,7701 ± 474^a N/mm
same,A (cross-sectional area),Ovariectomized Primates [2]; [12],82.8±2.1 mm^2
same,E (Young's modulus),Ovariectomized Primates [2]; [12],698±41^a Mpa
same,Fy (yield force),Ovariectomized Primates [2]; [12],1792±39^a N
same,S (stiffness),Ovariectomized Primates [2]; [12],7074±314^a N/mm
same,A (cross-sectional area),Ovariectomized Primates [2]; PTH5: 5 µg/kg for 18 months,87.3±2.7 mm^2
same,E (Young's modulus),Ovariectomized Primates [2]; PTH5: 5 µg/kg for 18 months,759±36^a Mpa
same,Fy (yield force),Ovariectomized Primates [2]; PTH5: 5 µg/kg for 18 months,2113±77^3.0 N
same,S (stiffness),Ovariectomized Primates [2]; PTH5: 5 µg/kg for 18 months,8012 ±367^a N/mm
same,increase of strength (Fy) in the vertebrae,Ovariectomized Primates [2]; [8],up to 43%
same,increase of whole body bone mineral content (BMC) compared to baseline,"[3]; 18 months, DXA",up to 6%
same,"overall skeletal bone mass, expressed as total body BMC",[3]; Fig. 1,increased significantly
same,proximal tibia BMC and BMD,[3]; [8],increased BMC and BMD
same,BMD of the midshaft or distal radius,[3]; pQCT,did not alter
same,increase of cross-sectional area of the midshaft,"[3]; radius midshaft, PTH5 group",7%
same,serum total alkaline phosphatase (ALP) and osteocalcin,[4]; bone formation markers,restored levels back to sham values
same,"1,25-dihydroxyvitamin D",[4]; [13],higher
same,endogenous PTH,[4]; [13],lower
same,serum phosphate,[4]; [13],lower
same,urinary cAMP,[4]; [13],higher
same,Urinary C-telopeptide (CrossLaps) excretion,"[4]; marker of bone resorption, compared to ovariectomized controls",not altered
same,"bone area, endpoint % change (SD) from baseline, Femur/Hip Intertrochanter",post-menopausal women; PTH-20,1.01 (4.99) %
same,"bone area, endpoint % change (SD) from baseline, Femur/Hip Neck",post-menopausal women; PTH-20,0.27 (4.91) %
same,"bone area, endpoint % change (SD) from baseline, Femur/Hip Total",post-menopausal women; PTH-20,0.84 (3.16) %
same,"bone area, endpoint % change (SD) from baseline, Femur/Hip Trochanter",post-menopausal women; PTH-20,1.99 (12.16) %
same,"bone area, endpoint % change (SD) from baseline, Femur/Hip Ward's triangle",post-menopausal women; PTH-20,1.13 (7.34) %
same,"bone area, endpoint % change (SD) from baseline, Lumbar spine",post-menopausal women; PTH-20,2.52 (3.52) %
same,"bone area, endpoint % change (SD) from baseline, Wrist 1/3 radius",post-menopausal women; PTH-20,0.52 (3.40) %
same,"bone area, endpoint % change (SD) from baseline, Wrist Ultradistal",post-menopausal women; PTH-20,-0.25 (6.00) %
same,"bone mineral content, endpoint % change (SD) from baseline, Femur/Hip Intertrochanter",post-menopausal women; PTH-20,3.59 (7.32) %
same,"bone mineral content, endpoint % change (SD) from baseline, Femur/Hip Neck",post-menopausal women; PTH-20,2.99 (7.26) %
same,"bone mineral content, endpoint % change (SD) from baseline, Femur/Hip Total",post-menopausal women; PTH-20,3.50 (6.26) %
same,"bone mineral content, endpoint % change (SD) from baseline, Femur/Hip Trochanter",post-menopausal women; PTH-20,5.68 (15.58) %
same,"bone mineral content, endpoint % change (SD) from baseline, Femur/Hip Ward's triangle",post-menopausal women; PTH-20,5.36 (14.78) %
same,"bone mineral content, endpoint % change (SD) from baseline, Lumbar spine",post-menopausal women; PTH-20,11.85 (8.83) %
same,"bone mineral content, endpoint % change (SD) from baseline, Whole body",post-menopausal women; PTH-20,1.30 (4.48) %
same,"bone mineral content, endpoint % change (SD) from baseline, Wrist 1/3 radius",post-menopausal women; PTH-20,-1.37 (4.51) %
same,"bone mineral content, endpoint % change (SD) from baseline, Wrist Ultradistal",post-menopausal women; PTH-20,-0.25 (6.53) %
same,"bone mineral density, endpoint % change (SD) from baseline, Femur/Hip Intertrochanter",post-menopausal women; PTH-20,2.62 (5.52) %
same,"bone mineral density, endpoint % change (SD) from baseline, Femur/Hip Neck",post-menopausal women; PTH-20,2.79 (5.72) %
same,"bone mineral density, endpoint % change (SD) from baseline, Femur/Hip Total",post-menopausal women; PTH-20,2.58 (4.88) %
same,"bone mineral density, endpoint % change (SD) from baseline, Femur/Hip Trochanter",post-menopausal women; PTH-20,3.50 (6.81) %
same,"bone mineral density, endpoint % change (SD) from baseline, Femur/Hip Ward's triangle",post-menopausal women; PTH-20,4.19 (11.93) %
same,"bone mineral density, endpoint % change (SD) from baseline, Lumbar spine",post-menopausal women; PTH-20,9.70 (7.41) %
same,"bone mineral density, endpoint % change (SD) from baseline, Wrist 1/3 radius",post-menopausal women; PTH-20,-1.94 (4.07) %
same,"bone mineral density, endpoint % change (SD) from baseline, Wrist Ultradistal",post-menopausal women; PTH-20,-0.05 (7.14) %
same,"bone area, endpoint % change (SD) from baseline, Femur/Hip Intertrochanter",post-menopausal women; PTH-40,1.01 (4.89) %
same,"bone area, endpoint % change (SD) from baseline, Femur/Hip Neck",post-menopausal women; PTH-40,0.81 (5.56) %
same,"bone area, endpoint % change (SD) from baseline, Femur/Hip Total",post-menopausal women; PTH-40,1.05 (2.98) %
same,"bone area, endpoint % change (SD) from baseline, Femur/Hip Trochanter",post-menopausal women; PTH-40,1.92 (11.30) %
same,"bone area, endpoint % change (SD) from baseline, Femur/Hip Ward's triangle",post-menopausal women; PTH-40,0.99 (8.06) %
same,"bone area, endpoint % change (SD) from baseline, Lumbar spine",post-menopausal women; PTH-40,3.34 (3.72) %
same,"bone area, endpoint % change (SD) from baseline, Wrist 1/3 radius",post-menopausal women; PTH-40,0.01 (4.42) %
same,"bone area, endpoint % change (SD) from baseline, Wrist Ultradistal",post-menopausal women; PTH-40,-0.39 (4.80) %
same,"bone mineral content, endpoint % change (SD) from baseline, Femur/Hip Intertrochanter",post-menopausal women; PTH-40,4.99 (7.79) %
same,"bone mineral content, endpoint % change (SD) from baseline, Femur/Hip Neck",post-menopausal women; PTH-40,5.80 (8.71) %
same,"bone mineral content, endpoint % change (SD) from baseline, Femur/Hip Total",post-menopausal women; PTH-40,4.78 (6.70) %
same,"bone mineral content, endpoint % change (SD) from baseline, Femur/Hip Trochanter",post-menopausal women; PTH-40,6.53 (15.33) %
same,"bone mineral content, endpoint % change (SD) from baseline, Femur/Hip Ward's triangle",post-menopausal women; PTH-40,8.86 (17.02) %
same,"bone mineral content, endpoint % change (SD) from baseline, Lumbar spine",post-menopausal women; PTH-40,16.62 (11.1) %
same,"bone mineral content, endpoint % change (SD) from baseline, Whole body",post-menopausal women; PTH-40,2.28 (5.44) %
same,"bone mineral content, endpoint % change (SD) from baseline, Wrist 1/3 radius",post-menopausal women; PTH-40,-3.04 (6.09) %
same,"bone mineral content, endpoint % change (SD) from baseline, Wrist Ultradistal",post-menopausal women; PTH-40,-1.88 (7.97) %
same,"bone mineral density, endpoint % change (SD) from baseline, Femur/Hip Intertrochanter",post-menopausal women; PTH-40,3.98 (5.96) %
same,"bone mineral density, endpoint % change (SD) from baseline, Femur/Hip Neck",post-menopausal women; PTH-40,5.06 (6.73) %
same,"bone mineral density, endpoint % change (SD) from baseline, Femur/Hip Total",post-menopausal women; PTH-40,3.60 (5.42) %
same,"bone mineral density, endpoint % change (SD) from baseline, Femur/Hip Trochanter",post-menopausal women; PTH-40,4.40 (7.45) %
same,"bone mineral density, endpoint % change (SD) from baseline, Femur/Hip Ward's triangle",post-menopausal women; PTH-40,7.85 (13.24) %
same,"bone mineral density, endpoint % change (SD) from baseline, Lumbar spine",post-menopausal women; PTH-40,13.7 (9.69) %
same,"bone mineral density, endpoint % change (SD) from baseline, Wrist 1/3 radius",post-menopausal women; PTH-40,-3.17 (4.62) %
same,"bone mineral density, endpoint % change (SD) from baseline, Wrist Ultradistal",post-menopausal women; PTH-40,-1.76 (7.20) %
same,"mineralization, activation frequency, or remodeling periods",[5]; iliac biopsy,did not affect
same,cancellous bone area,"[5]; iliac biopsy at 15 months, compared to ovariectomized",increased cancellous bone area
same,sustained hypercalcemia or kidney pathology,[6],no evidence of sustained hypercalcemia or kidney pathology
same,"Fa, Proximal femur neck",Ovariectomized Primates [7]; [9],1258 ± 52^a
same,"Fa, Proximal femur neck",Ovariectomized Primates [7]; PTH1: 1 µg/kg for 18 months,1235 ± 43^a
same,"Fa, Proximal femur neck",Ovariectomized Primates [7]; [10],1213 ± 42
same,"Fa, Proximal femur neck",Ovariectomized Primates [7]; PTH5: 5 µg/kg for 18 months,1362 ± 30^a
same,improvement of strength in the femur neck (fu),Ovariectomized Primates [7]; [8],up to 12%
